Reference: US11192860B2, “Co-crystal of an orally available HIF prolyl hydroxylase inhibitor” (Sandoz AG, priority 2017, dated 2021)
One block for each compound: values may come before it.

Assays:
[1] = FIGS. 4, 6 and 8 of WO 2014/014835 A2; cited from earlier work
[2] = TGA curves of WO 2014/014835 A2; cited from earlier work
[3] = Differential scanning calorimetry (thermal stability); assay type: physicochemical; settings: 25 to 250° C. at 10 K/min
Procedure: The roxadustat L-proline co-crystal according to the present invention was investigated by DSC, which was performed on a Mettler Polymer DSC R instrument. The sample (2.72 mg) was heated in a 40 microliter aluminium pan with a pierced aluminium lid from 25 to 250° C. at a rate of 10 K/min. Nitrogen (purge rate 50 mL/min) was used as purge gas.

[4] = Stability against temperature and moisture (40° C., 75% RH, PXRD); assay type: physicochemical; settings: 75% relative humidity, 7 days
[5] = Stability against mechanical stress (dry grinding, PXRD); assay type: physicochemical; settings: dry ground 20 minutes, 25 vibrations per second
Procedure: A 1.5 mL grinding jar with one ball (5 mm diameter) both made of stainless steel was fed with about 70 mg sample and ground for 20 minutes at a frequency of 25 vibrations per second.

[6] = Powder dissolution in phosphate buffer pH 6 at 25° C., concentration by HPLC; assay type: physicochemical; settings: phosphate buffer pH 6, 25° C.
Procedure: Powder dissolution experiments were carried out in phosphate buffer pH 6 at 25° C. for form A of roxadustat and the L-proline co-crystal of the present invention. The respective concentrations were determined by HPLC at a wavelength of 254 nm.

[7] = Stability against pressure (IR press, PXRD); assay type: physicochemical; settings: pressed to a pellet at about 100 kN, ground again
Description: The pellet was ground again in order to obtain a powder, which was then investigated by PXRD.

[8] = Thermogravimetric analysis (mass loss on heating); assay type: physicochemical; settings: 10 K/min
Procedure: The sample (16.28 mg) was heated in a 100 microliter aluminum pan closed with an aluminum lid. The lid was automatically pierced at the beginning of the measurement. The sample was heated from 25 to 250° C. at a rate of 10 K/min. Nitrogen (purge rate 50 mL/min) was used as purge gas.
For example mass losses of only about 0.1 weight % up to a temperature of about 180° C., about 0.2 weight % up to a temperature of about 190° C. and about 0.3 weight % up to a temperature of about 200° C. were observed, which further proves the presence of an anhydrous and non-solvated co-crystal.

Compound: Cc1nc(C(=O)NCC(=O)O)c(O)c2ccc(Oc3ccccc3)cc12.Cc1nc(C(=O)NCC(=O)O)c(O)c2ccc(Oc3ccccc3)cc12.O [form B]
phase transformation during DSC experiments [1]: at least partially transform to form A
solvent/water loss upon heating (TGA) [2]: readily lose their solvents/water upon heating

phase changes according to powder X-ray diffraction [4]: no phase changes occurred
phase changes according to powder X-ray diffraction [5]: no phase changes occured
time after which the complex falls apart in aqueous solution into its pure components [6]: about 5 minutes
Concentration roxadustat (dissolution profile) ([6]; 1 min, listed as roxadustat L-prolin co-crystal): 0.66 g/L
Concentration roxadustat (dissolution profile) ([6]; 5 min, listed as roxadustat L-prolin co-crystal): 0.03 g/L
Concentration roxadustat (dissolution profile) ([6]; 15 min, listed as roxadustat L-prolin co-crystal): 0.02 g/L
Concentration roxadustat (dissolution profile) ([6]; 30 min, listed as roxadustat L-prolin co-crystal): 0.04 g/L
Concentration roxadustat (dissolution profile) ([6]; 60 min, listed as roxadustat L-prolin co-crystal): 0.10 g/L
Concentration roxadustat (dissolution profile) ([6]; 180 min, listed as roxadustat L-prolin co-crystal): 0.09 g/L
phase changes according to powder X-ray diffraction [7]: no phase changes occured
TGA mass loss ([8]; up to about 180° C.): about 0.1 weight %
TGA mass loss ([8]; up to about 190° C.): about 0.2 weight %
TGA mass loss ([8]; up to about 200° C.): about 0.3 weight %
Compound: Cc1nc(C(=O)NCC(=O)O)c(O)c2ccc(Oc3ccccc3)cc12 [roxadustat L-proline co-crystal]
thermal events in DSC until melting [3]: neither phase changes nor desolvation events are detectable until the sample melts

Concentration roxadustat (dissolution profile) ([6]; 1 min): 0.03 g/L
Concentration roxadustat (dissolution profile) ([6]; 5 min): 0.05 g/L
Concentration roxadustat (dissolution profile) ([6]; 15 min): 0.06 g/L
Concentration roxadustat (dissolution profile) ([6]; 30 min): 0.05 g/L
Concentration roxadustat (dissolution profile) ([6]; 60 min): 0.06 g/L
Concentration roxadustat (dissolution profile) ([6]; 180 min): 0.07 g/L
Compound: Cc1nc(C(=O)NCC(=O)O)c(O)c2ccc(Oc3ccccc3)cc12 [roxadustat form A, [(4-hydroxy-1-methyl-7-phenoxyisoquinoline-3-carbonyl)amino]acetic acid, reference compound]
